Laboratory results as given in patent US20220372067A1, “3.ALPHA.-HYDROXY-17.BETA.-AMIDE NEUROACTIVE STEROIDS AND COMPOSITIONS THEREOF” (SAGE THERAPEUTICS, INC., priority 2018, published 2022).

Molecular target: GABAA receptor (TBPS binding site), rat brain cortical membranes
Assay: [35S]-TBPS binding assay, rat brain cortical membranes in the presence of 5 mM GABA
Details: inhibition of 3 nM [35S]-TBPS binding
Procedure: [^35S]-t-Butylbicyclophosphorothionate (TBPS) binding assays using rat brain cortical membranes in the presence of 5 mM GABA has been described (Gee et al, J. Pharmacol. Exp. Ther. 1987, 241, 346-353; Hawkinson et al, Mol. Pharmacol. 1994, 46, 977-985; Lewin, A. H et al., Mol. Pharmacol. 1989, 35, 189-194).
Briefly, cortices are rapidly removed following decapitation of carbon dioxide-anesthetized Sprague-Dawley rats (200-250 g). The cortices are homogenized in 10 volumes of ice-cold 0.32 M sucrose using a glass/teflon homogenizer and centrifuged at 1500×g for 10 min at 4° C. The resultant supernatants are centrifuged at 10,000×g for 20 min at 4° C. to obtain the P2 pellets. The P2 pellets are resuspended in 200 mM NaCl/50 mM Na—K phosphate pH 7.4 buffer and centrifuged at 10,000×g for 10 min at 4° C. This washing procedure is repeated twice and the pellets are resuspended in 10 volumes of buffer. Aliquots ([…]) of the membrane suspensions are incubated with 3 nM [^35S]-TBPS and […] aliquots of test drug dissolved in dimethyl sulfoxide (DMSO) (final 0.5%) in the presence of 5 mM GABA. The incubation is brought to a final volume of 1.0 mL with buffer. Nonspecific binding is determined in the presence of […] and ranged from 15 to 25%. Following a 90 min incubation at room temp, the assays are terminated by filtration through glass fiber filters (Schleicher and Schuell No. 32) using a cell harvester (Brandel) and rinsed three times with ice-cold buffer. Filter bound radioactivity is measured by liquid scintillation spectrometry. Non-linear curve fitting of the overall data for each drug averaged for each concentration is done using Prism (GraphPad). […] The concentration of test compound producing 50% inhibition (IC50) of specific binding and the maximal extent of inhibition (Imax) are determined for the individual experiments with the same model used for the overall data and then the means±SEM.s of the individual experiments are calculated.
Various compounds are or can be screened to determine their potential as modulators of [^35S]-TBPS binding in vitro. These assays are or can be performed in accordance with the above

## COC[C@@]1(O)CC[C@H]2[C@H](CC[C@@H]3[C@@H]2CC[C@]2(C)[C@@H](C(=O)Nc4ccc(C)nc4Cl)CC[C@@H]32)C1 [Example 43]
  IC50: < 100 nM

## COC[C@@]1(O)CC[C@H]2[C@H](CC[C@@H]3[C@@H]2CC[C@]2(C)[C@@H](C(=O)Nc4ccc(N5CCCC5=O)nc4C)CC[C@@H]32)C1 [Example 49]
  IC50: < 100 nM

## CCOC[C@@]1(O)CC[C@H]2[C@H](CC[C@@H]3[C@@H]2CC[C@]2(C)[C@@H](C(=O)Nc4cccnc4F)CC[C@@H]32)C1 [Example 66, (3R,5R,8R,9R,10S,13S,14S,17S)-3-(ethoxymethyl)-N-(2-fluoropyridin-3-yl)-3-hydroxy-13-methylhexadecahydro-1H-cyclopenta[a]phenanthrene-17-carboxamide]
  IC50: < 100 nM

## CCOC[C@@]1(O)CC[C@H]2[C@H](CC[C@@H]3[C@@H]2CC[C@]2(C)[C@@H](C(=O)Nc4c(C#N)cnn4C)CC[C@@H]32)C1 [Example 57]
  IC50: > 1000 nM

## CCOC[C@@]1(O)CC[C@H]2[C@H](CC[C@@H]3[C@@H]2CC[C@]2(C)[C@@H](C(=O)Nc4ncccc4C)CC[C@@H]32)C1 [Example 2, (3R,5R,8R,9R,10S,13S,14S,17S)-3-(ethoxymethyl)-3-hydroxy-13-methyl-N-(3-methylpyridin-2-yl)hexadecahydro-1H-cyclopenta[a]phenanthrene-17-carboxamide]
  IC50: > 1000 nM

## COC[C@@]1(O)CC[C@H]2[C@H](CC[C@@H]3[C@@H]2CC[C@]2(C)[C@@H](C(=O)Nc4cccnc4C)CC[C@@H]32)C1 [Example 51]
  IC50: < 100 nM

## CCOC[C@@]1(O)CC[C@@]2(CC)[C@H](CC[C@H]3[C@@H]4CC[C@H](C(=O)Nc5cc(C#N)n(C)n5)[C@@]4(C)CC[C@@H]32)C1 [Example 36]
  IC50: < 100 nM

## COC[C@@]1(O)CC[C@H]2[C@H](CC[C@@H]3[C@@H]2CC[C@]2(C)[C@@H](C(=O)Nc4cccc(N5CCCC5=O)n4)CC[C@@H]32)C1 [Example 50]
  IC50: < 100 nM

## CC[C@@]1(O)CC[C@@]2(C)[C@H](CC[C@@H]3[C@@H]2CC[C@]2(C)[C@@H](C(=O)Nc4nc(C)ccc4Cl)CC[C@@H]32)C1 [Example 15, (3R,5R,8R,9S,10S,13S,14S,17S)-N-(3-chloro-6-methylpyridin-2-yl)-3-ethyl-3-hydroxy-10,13-dimethylhexadecahydro-1H-cyclopenta[a]phenanthrene-17-carboxamide]
  IC50: 100 to 1000 nM

## C[C@]12CC[C@H]3[C@@H](CC[C@@H]4C[C@H](O)CC[C@@H]43)[C@@H]1CC[C@@H]2C(=O)Nc1cnc(C#N)cn1 [Example 14, (3R,5R,8R,9R,10S,13S,14S,17S)-N-(5-cyanopyrazin-2-yl)-3-hydroxy-13-methylhexadecahydro-1H-cyclopenta[a]phenanthrene-17-carboxamide]
  IC50: < 100 nM

## CCOC[C@@]1(O)CC[C@H]2[C@H](CC[C@@H]3[C@@H]2CC[C@]2(C)[C@@H](C(=O)Nc4cc(C#N)nn4C)CC[C@@H]32)C1 [Example 37]
  IC50: < 100 nM

## CCOC[C@@]1(O)CC[C@H]2[C@H](CC[C@@H]3[C@@H]2CC[C@]2(C)[C@@H](C(=O)Nc4cccnc4)CC[C@@H]32)C1 [Example 21]
  IC50: 100 to 1000 nM

## CCOC[C@@]1(O)CC[C@H]2[C@H](CC[C@@H]3[C@@H]2CC[C@]2(C)[C@@H](C(=O)Nc4ncc(C)cc4C)CC[C@@H]32)C1 [Example 62]
  IC50: 100 to 1000 nM

## COC[C@@]1(O)CC[C@H]2[C@H](CC[C@@H]3[C@@H]2CC[C@]2(C)[C@@H](C(=O)Nc4cccc(-n5ccc(C)n5)n4)CC[C@@H]32)C1 [Example 45]
  IC50: < 100 nM

## COC[C@@]1(O)CC[C@@]2(C)[C@@H](CC[C@@H]3[C@@H]2CC[C@]2(C)[C@@H](C(=O)Nc4cccnc4C)CC[C@@H]32)C1 [Example 32]
  IC50: < 100 nM

## CCC[C@@]1(O)CC[C@H]2[C@H](CC[C@@H]3[C@@H]2CC[C@]2(C)[C@@H](C(=O)Nc4ccc(C#N)cn4)CC[C@@H]32)C1 [Example 67, (3R,5R,8R,9R,10S,13S,14S,17S)-N-(5-cyanopyridin-2-yl)-3-hydroxy-13-methyl-3-propylhexadecahydro-1H-cyclopenta[a]phenanthrene-17-carboxamide]
  IC50: < 100 nM

## CCOC[C@@]1(O)CC[C@@]2(CC)[C@H](CC[C@H]3[C@@H]4CC[C@H](C(=O)Nc5ccc(C#N)cn5)[C@@]4(C)CC[C@@H]32)C1 [Example 33]
  IC50: < 100 nM

## CCOC[C@@]1(O)CC[C@H]2[C@H](CC[C@@H]3[C@@H]2CC[C@]2(C)[C@@H](C(=O)Nc4ccc(C#N)nc4C)CC[C@@H]32)C1 [Example 27]
  IC50: < 100 nM

## CCOC[C@@]1(O)CC[C@@]2(CC)[C@H](CC[C@H]3[C@@H]4CC[C@H](C(=O)Nc5cc(C#N)nn5C)[C@@]4(C)CC[C@@H]32)C1 [Example 35]
  IC50: < 100 nM

## CCOC[C@@]1(O)CC[C@H]2[C@H](CC[C@@H]3[C@@H]2CC[C@]2(C)[C@@H](C(=O)Nc4nc(C#N)ccc4C)CC[C@@H]32)C1 [Example 61]
  IC50: 100 to 1000 nM

## COC[C@@]1(O)CC[C@H]2[C@H](CC[C@@H]3[C@@H]2CC[C@]2(C)[C@@H](C(=O)Nc4ccc(-n5nccc5C)nc4C)CC[C@@H]32)C1 [Example 47]
  IC50: < 100 nM

## CCOC[C@@]1(O)CC[C@@]2(CC)[C@@H](CC[C@H]3[C@@H]4CC[C@H](C(=O)Nc5ccc(C#N)cn5)[C@@]4(C)CC[C@@H]32)C1 [Example 12, (3R,5S,8S,9S,10S,13S,14S,17S)-N-(5-cyanopyridin-2-yl)-3-(ethoxymethyl)-10-ethyl-3-hydroxy-13-methylhexadecahydro-1H-cyclopenta[a]phenanthrene-17-carboxamide]
  IC50: < 100 nM

## COC[C@@]1(O)CC[C@H]2[C@H](CC[C@@H]3[C@@H]2CC[C@]2(C)[C@@H](C(=O)Nc4ccc(-c5ncc(F)cn5)nc4C)CC[C@@H]32)C1 [Example 48]
  IC50: < 100 nM

## CCOC[C@@]1(O)CC[C@H]2[C@H](CC[C@@H]3[C@@H]2CC[C@]2(C)[C@@H](C(=O)Nc4c5c(nn4C)CCCC5)CC[C@@H]32)C1 [Example 54]
  IC50: 100 to 1000 nM

## CCOC[C@@]1(O)CC[C@H]2[C@H](CC[C@@H]3[C@@H]2CC[C@]2(C)[C@@H](C(=O)Nc4cccc(N5CCCC5=O)n4)CC[C@@H]32)C1 [Example 64]
  IC50: < 100 nM

## CCOC[C@@]1(O)CC[C@@]2(C)[C@H](CC[C@@H]3[C@@H]2CC[C@]2(C)[C@@H](C(=O)Nc4ccc(C#N)cn4)CC[C@@H]32)C1 [Example 31]
  IC50: < 100 nM

## COC[C@@]1(O)CC[C@H]2[C@H](CC[C@@H]3[C@@H]2CC[C@]2(C)[C@@H](C(=O)Nc4nc(C)ccc4Cl)CC[C@@H]32)C1 [Example 44]
  IC50: 100 to 1000 nM

## COC[C@@]1(O)CC[C@H]2[C@H](CC[C@@H]3[C@@H]2CC[C@]2(C)[C@@H](C(=O)Nc4cccc(C)n4)CC[C@@H]32)C1 [Example 38]
  IC50: < 100 nM
